# Experimental data taken from US20080021217A1, “HETEROCYCLIC INHIBITORS OF RHO KINASE” (priority 2006, published 2008).
# How the values were obtained:
# [1] = target: T1, recombinant N-terminal GST-tagged human Rho kinase 2 (ROCK2, amino acids 1-552) (Homo sapiens, UniProt O75116); assay: In vitro Rho kinase assay (luciferase-based ATP consumption), ROCK2; format: biochemical
# T1 construct: ROCK2, amino acids 1-552, Invitrogen Inc., cat #PV3759; GST (N); purchased Invitrogen Inc. PV3759
# Method: (§1) Rho kinase biochemical assays described below depend on firefly luciferase-based, indirect measurement of total ATP consumption by the kinase following incubation with substrate and ATP. 25 μl of Rho kinase assay buffer (20 mM Tris-HCL [pH 7.5], 1 mM MgCl2, 0.4 mM CaCl2, 0.15 mM EGTA, 0.1 mg/ml bovine serum albumin) containing 0.82 μg/ml of recombinant N-terminal GST-tagged human Rho kinase 1 (ROCK1, amino acids 1-535, Invitrogen Inc., cat. #PV-3691) or recombinant N-terminal GST-tagged human Rho kinase 2 (ROCK2, amino acids 1-552, Invitrogen Inc., cat #PV3759), 100 μg/ml S6 peptide substrate (related to amino acids 218-249 of the human 40S ribosomal protein S6, and suitable for ROCK1 or ROCK2, e.g. Upstate/Millipore Inc., cat #12-420), and 3 µM ATP are dispensed to wells of a 384 multi-well opaque plate. The plate is centrifuged for 30 seconds at approximately 200×g. 240 nl of test compound in DMSO is dispensed to each well by passive pin transfer. The lag phase of this in vitro kinase reaction permits addition of compounds soon after the reaction initiates. The reaction is allowed to incubate at 30° C. for 2 hours. The assay plates are sealed and maintained in a humidified environment. After 2 hours, 25 μl of easyLite protein kinase assay reagent (Perkin-Elmer, Inc.) is dispensed. After an additional 10 minute incubation at room temperature (about 22° C.), luminescence activity is measured on a Molecular Devices Analyst multi-mode plate reader or other suitable plate reader. Kinase inhibition results in less ATP consumption, and therefore increased luminescence signal. Negative control activity is measured with DMSO lacking any test compound. The positive control is 2-methyl-1-(4-methylisoquinolin-5-ylsulfonyl)perhydro-1,4-diazepine hydrochloride (aka H-1152P, HCl salt). Efficacy is measured as a percentage of positive control activity. […] In some cases, kinase reactions and compound testing are performed in 1536 multi-well plates under similar conditions, with assay volumes appropriately scaled. The designated NT means the cited example was not tested.
# [2] = target: T2, recombinant N-terminal GST-tagged human Rho kinase 1 (ROCK1, amino acids 1-535) (Homo sapiens, UniProt Q13464); assay: In vitro Rho kinase assay (luciferase-based ATP consumption), ROCK1; format: biochemical
# T2 construct: ROCK1, amino acids 1-535, Invitrogen Inc., cat. #PV-3691; GST (N); purchased Invitrogen Inc. PV-3691
# T2 sequence (Q13464 1-535): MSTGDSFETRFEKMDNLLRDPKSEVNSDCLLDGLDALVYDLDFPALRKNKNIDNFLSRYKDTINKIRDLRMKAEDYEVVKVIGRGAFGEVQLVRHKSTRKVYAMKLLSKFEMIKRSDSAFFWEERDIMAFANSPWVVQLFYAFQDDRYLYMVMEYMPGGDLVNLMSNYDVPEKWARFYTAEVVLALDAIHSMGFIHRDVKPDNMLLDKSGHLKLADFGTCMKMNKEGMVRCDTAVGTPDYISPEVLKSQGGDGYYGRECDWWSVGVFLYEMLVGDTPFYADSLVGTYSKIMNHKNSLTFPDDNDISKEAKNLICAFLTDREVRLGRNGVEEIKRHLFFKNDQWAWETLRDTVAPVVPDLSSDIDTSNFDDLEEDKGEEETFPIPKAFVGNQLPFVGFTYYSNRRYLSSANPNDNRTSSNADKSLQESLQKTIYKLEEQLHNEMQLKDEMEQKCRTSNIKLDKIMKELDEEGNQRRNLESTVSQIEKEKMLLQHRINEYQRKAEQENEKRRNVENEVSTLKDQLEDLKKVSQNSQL
# Method: as §1
# T1 sequence (O75116 1-552): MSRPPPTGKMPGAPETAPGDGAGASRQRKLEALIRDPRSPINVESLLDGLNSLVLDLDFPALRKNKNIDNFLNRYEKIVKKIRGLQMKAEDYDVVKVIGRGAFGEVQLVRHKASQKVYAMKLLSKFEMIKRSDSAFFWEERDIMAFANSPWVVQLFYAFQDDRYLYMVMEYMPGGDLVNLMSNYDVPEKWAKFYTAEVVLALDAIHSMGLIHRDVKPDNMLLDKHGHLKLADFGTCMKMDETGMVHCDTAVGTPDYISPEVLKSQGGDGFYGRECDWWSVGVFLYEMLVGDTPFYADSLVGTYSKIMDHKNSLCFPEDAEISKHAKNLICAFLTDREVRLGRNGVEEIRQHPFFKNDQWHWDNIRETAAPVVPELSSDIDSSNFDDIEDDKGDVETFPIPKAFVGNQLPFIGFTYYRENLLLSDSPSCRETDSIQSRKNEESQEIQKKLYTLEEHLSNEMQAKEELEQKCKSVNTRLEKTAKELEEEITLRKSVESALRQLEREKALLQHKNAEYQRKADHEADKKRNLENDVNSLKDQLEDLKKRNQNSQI
IC50 [1] [µM],IC50 [2] [µM],Compound
> 5,> 5,"CC(C)(C)C(=O)Oc1ccc(C(=O)NCc2nc(-c3ccncc3)n[nH]2)c(OC(=O)C(C)(C)C)c1 [Example 37, 4-((3-(Pyridin-4-yl)-1H-1,2,4-triazol-5-yl)methylcarbamoyl)-1,3-phenylene bis(2,2-dimethylpropanoate)]"
> 5,< 5,"CC(C)(C)C(=O)Oc1ccc(C(=O)NCc2nc(-c3ccncc3)n[nH]2)c(O)c1 [Example 39, 3-Hydroxy-4-((3-(pyridin-4-yl)-1H-1,2,4-triazol-5-yl)methylcarbamoyl)phenyl pivalate]"
> 5,> 5,"CS(=O)(=O)Nc1cccc(C(=O)NCc2nc(-c3ccncc3)n[nH]2)c1 [Example 21, 3-(methylsulfonamido)-N-((3-(pyridin-4-yl)-1H-1,2,4-triazol-5-yl)methyl)benzamide]"
< 5,< 5,"CS(=O)(=O)Nc1cccc(C(=O)NCc2nc(-c3c[nH]c4ncccc34)n[nH]2)c1 [Example 72, N-((3-(1H-pyrrolo[2,3-b]pyridin-3-yl)-1H-1,2,4-triazol-5-yl)methyl)-3-(methylsulfonamido)benzamide]"
> 5,> 5,"COc1cccc(C(=O)NCc2nc(-c3ccncc3)n[nH]2)c1 [Example 18, 3-methoxy-N-((3-(pyridin-4-yl)-1H-1,2,4-triazol-5-yl)methyl)benzamide]"
< 5,< 5,"Cc1ccc(C(=O)NCc2nc(-c3ccncc3)n[nH]2)s1 [Example 49, 5-Methyl-N-((3-(pyridin-4-yl)-1H-1,2,4-triazol-5-yl)methyl)thiophene-2-carboxamide]"
> 5,> 5,"c1ccc(COc2ccc(CNCc3nc(-c4ccncc4)n[nH]3)cc2)cc1 [Example 56, N-(4-(Benzyloxy)benzyl)-1-(3-(pyridin-4-yl)-1H-1,2,4-triazol-5-yl)methanamine]"
< 5,< 5,"O=C(NCc1nc(-c2ccncc2)n[nH]1)c1ccsc1 [Example 17, N-((3-(pyridin-4-yl)-1H-1,2,4-triazol-5-yl)methyl)thiophene-3-carboxamide]"
< 5,< 5,"O=C(NCc1nc(-c2ccncc2)n[nH]1)c1cccc(Cl)c1O [Example 26, 3-chloro-2-hydroxy-N-((3-(pyridin-4-yl)-1H-1,2,4-triazol-5-yl)methyl)benzamide]"
> 5,–,"NC1CCN(C(=O)Cc2nc(-c3ccncc3)n[nH]2)C1 (centres unmarked) [Example 61, 1-(3-Aminopyrrolidin-1-yl)-2-(3-(pyridin-4-yl)-1H-1,2,4-triazol-5-yl)ethanone]"
> 5,< 5,"Cc1cccc(C(=O)NCc2nc(-c3c[nH]c4ncccc34)n[nH]2)c1O [Example 71, N-((3-(1H-pyrrolo[2,3-b]pyridin-3-yl)-1H-1,2,4-triazol-5-yl)methyl)-2-hydroxy-3-methylbenzamide]"
> 5,> 5,"c1ccc2c(NCc3nc(-c4ccncc4)n[nH]3)n[nH]c2c1 [Example 59, N-((3-(Pyridin-4-yl)-1H-1,2,4-triazol-5-yl)methyl)-1H-indazol-3-amine]"
< 5,< 5,"COC(=O)c1ccc(C(=O)NCc2nc(-c3ccncc3)n[nH]2)cc1 [Example 30, Methyl 4-((3-(pyridin-4-yl)-1H-1,2,4-triazol-5-yl)methylcarbamoyl)benzoate]"
< 5,< 5,"O=C(NCc1nc(-c2ccncc2)n[nH]1)c1cccs1 [Example 16, N-((3-(pyridin-4-yl)-1H-1,2,4-triazol-5-yl)methyl)thiophene-2-carboxamide]"
< 5,< 5,"COc1ccc(C(=O)NCc2nc(-c3ccncc3)n[nH]2)cc1 [Example 19, 4-methoxy-N-((3-(pyridin-4-yl)-1H-1,2,4-triazol-5-yl)methyl)benzamide]"
> 5,> 5,"CS(=O)(=O)Nc1ccccc1C(=O)NCc1nc(-c2ccncc2)n[nH]1 [Example 29, 2-(Methylsulfonamido)-N-((3-(pyridin-4-yl)-1H-1,2,4-triazol-5-yl)methyl)benzamide]"
< 5,< 5,"O=C(NCc1nc(-c2c[nH]c3ncccc23)cs1)c1cccs1 [Example 75, N-((4-(1H-pyrrolo [2,3-b]pyridin-3-yl)thiazol-2-yl)methyl)thiophene-2-carboxamide]"

IC50 [1] [µM],IC50 [2] [µM],Compound
< 5,< 5,"O=C(NCc1nc(-c2ccncc2)n[nH]1)c1nccs1 [Example 20, N-((3-(pyridin-4-yl)-1H-1,2,4-triazol-5-yl)methyl) thiazole-2-carboxamide]"
> 5,> 5,"CN(Cc1nc(-c2ccncc2)n[nH]1)C(=O)c1ccc(O)cc1O [Example 58, 2,4-Dihydroxy-N-methyl-N-((3-(pyridin-4-yl)-1H-1,2,4-triazol-5-yl)methyl)benzamide]"
> 5,> 5,"CC(C)(C)C(=O)Oc1ccc(C(=O)NCc2nc(-c3ccncc3)n[nH]2)cc1 [Example 38, 4-((3-(Pyridin-4-yl)-1H-1,2,4-triazol-5-yl)methylcarbamoyl)phenyl pivalate]"
> 5,> 5,O=C(NCc1c[nH]c(-c2ccncc2)n1)c1cccs1 [Example 14]
< 5,< 5,"CC(C)(C)OC(=O)NCC[C@H](NC(=O)c1ccc(O)cc1O)c1nc(-c2ccncc2)n[nH]1 [Example 77, (S)-tert-Butyl 3-(2,4-dihydroxybenzamido)-3-(3-(pyridin-4-yl)-1H-1,2,4-triazol-5-yl)propylcarbamate]"
> 5,> 5,"Cc1c(Cl)ccc(S(=O)(=O)NCc2nc(-c3ccncc3)n[nH]2)c1O [Example 32, 4-Chloro-2-hydroxy-3-methyl-N-((3-(pyridin-4-yl)-1H-1,2,4-triazol-5-yl)methyl)benzenesulfonamide]"
< 5,< 5,"Cc1csc(C(=O)NCc2nc(-c3ccncc3)n[nH]2)c1 [Example 48, 4-Methyl-N-((3-(pyridin-4-yl)-1H-1,2,4-triazol-5-yl)methyl)thiophene-2-carboxamide]"
> 5,> 5,"O=S(=O)(NCc1nc(-c2ccncc2)n[nH]1)c1ccc(O)cc1 [Example 55, 4-Hydroxy-N-((3-(pyridin-4-yl)-1H-1,2,4-triazol-5-yl)methyl)benzenesulfonamide]"
< 5,< 5,"Cc1ccc(C(=O)NCc2nc(-c3ccncc3)n[nH]2)c(O)c1 [Example 27, 2-hydroxy-4-methyl-N-((3-(pyridin-4-yl)-1H-1,2,4-triazol-5-yl)methyl) benzamide]"
< 5,< 5,"O=C(NCc1nc(-c2ccncc2)n[nH]1)c1ccc(O)cc1 [Example 28, 4-hydroxy-N-((3-(pyridin-4-yl)-1H-1,2,4-triazol-5-yl)methyl)benzamide]"
> 5,> 5,"c1ccc2c(NCc3nc(-c4ccncc4)n[nH]3)ncnc2c1 [Example 53, N-((3-(Pyridin-4-yl)-1H-1,2,4-triazol-5-yl)methyl)quinazolin-4-amine]"
< 5,< 5,"O=C(NCc1nc(-c2ccncc2)co1)c1ccc(O)cc1O [Example 8, 2,4-dihydroxy-N-((4-(pyridin-4-yl)oxazol-2-yl)methyl)benzamide]"
< 5,< 5,"CCc1cccc(C(=O)NCc2nc(-c3ccncc3)n[nH]2)c1O [Example 52, 3-Ethyl-2-hydroxy-N-((3-(pyridin-4-yl)-1H-1,2,4-triazol-5-yl)methyl)benzamide]"
> 5,–,"O=C(Nc1cccc2c(-c3ccncc3)n[nH]c12)c1cccs1 [Example 68, N-(3-(Pyridin-4-yl)-1H-indazol-7-yl)thiophene-2-carboxamide]"
> 5,–,"COc1ccc(NC(=O)NCc2nc(-c3ccncc3)n[nH]2)c(OC)c1 [Example 34, 1-(2,4-Dimethoxyphenyl)-3-((3-(pyridin-4-yl)-1H-1,2,4-triazol-5-yl)methyl)urea]"
> 5,–,"CC(C)(C)OC(=O)NC1CCN(C(=O)Cc2nc(-c3ccncc3)n[nH]2)C1 (centres unmarked) [Example 60, tert-Butyl 1-(2-(3-(pyridin-4-yl)-1H-1,2,4-triazol-5-yl)acetyl)pyrrolidin-3-ylcarbamate]"
